The values below come from patent US9328361B2, “Coryneform bacterium transformant and process for producing phenol using the same” (GREEN PHENOL DEVELOPMENT CO., LTD., priority 2010, dated 2016).

Read-outs that look alike come from different tables or passages of the source.

The test system of one assay is Escherichia coli JM109. The following applies: aerobic culture, LB liquid medium, 37° C. On the procedure: (§1) A growth inhibition test in aerobic culture was performed to examine the influence of phenol on Corynebacterium glutamicum, Escherichia coli, and Pseudomonas putida. Pseudomonas putida S12, which was used for the test, is reported to be a solvent-resistant strain. In the report, disclosed is an unparalleled technology using the strain as a host in phenol production.
Escherichia coli JM109 was applied to LB agar medium (1% polypeptone, 0.5% yeast extract, 0.5% NaCl and 1.5% agar) and was left stand in the dark at 37° C. for 15 hours.
The growth of bacterial cells was determined by absorbance measurement at OD610.
(§2) Pseudomonas putida F1 and S12 grown in the above conditions were each inoculated into 100 mL of LB (+glucose) liquid medium in such a way that the initial bacterial cell concentration would be OD610=0.05, phenol was added at the same time in such a way that the final concentration would be 0, 0.10, or […], and aerobic culture was performed with shaking at 30° C. The growth of bacterial cells was determined by absorbance measurement at OD610. […] The vertical axis of FIG. 1 indicates OD610.

For assay [1], the system named is Corynebacterium glutamicum R. The following applies: aerobic culture, A liquid medium, 33° C. The method, then:
A growth inhibition test in aerobic culture was performed to examine the influence of phenol on Corynebacterium glutamicum, Escherichia coli, and Pseudomonas putida. Pseudomonas putida S12, which was used for the test, is reported to be a solvent-resistant strain. In the report, disclosed is an unparalleled technology using the strain as a host in phenol production. […]
The Corynebacterium glutamicum R grown in the above conditions was inoculated into 100 mL of A liquid media in such a way that the initial bacterial cell concentration would be OD610=0.05, phenol was added at the same time in such a way that the final concentration would be 0, 0.16, 0.2, 0.24, or […], and aerobic culture was performed with shaking at 33° C. The growth of bacterial cells was determined by absorbance measurement at OD610.
Pseudomonas putida F1 and S12 grown in the above conditions were each inoculated into 100 mL of LB (+glucose) liquid medium in such a way that the initial bacterial cell concentration would be OD610=0.05, phenol was added at the same time in such a way that the final concentration would be 0, 0.10, or […], and aerobic culture was performed with shaking at 30° C. The growth of bacterial cells was determined by absorbance measurement at OD610. […]

Assay [2] concerns Corynebacterium glutamicum R. The conditions noted are these: reducing conditions (ORP −450 mV), 8% glucose, 33° C.
Description: Corynebacterium glutamicum R was applied to A agar medium and was left stand in the dark at 33° C. for 20 hours.
An inoculation loop of the Corynebacterium glutamicum R grown on a plate as above was inoculated into a test tube containing 10 mL of A liquid medium and was aerobically cultured with shaking at 33° C. for 15 hours.
The Corynebacterium glutamicum R grown in the above conditions was inoculated into a 2 L-conical flask containing 500 mL of A liquid medium and was aerobically cultured with shaking at 33° C. for 15 hours.
The bacterial cells cultured and proliferated as above were collected by centrifugation (5,000×g at 4° C. for 15 minutes). The obtained bacterial cells were suspended in BT (-urea) liquid medium (0.7% ammonium sulfate, 0.05% potassium dihydrogen phosphate, 0.05% dipotassium hydrogen phosphate, 0.05% magnesium sulfate heptahydrate, 0.0006% iron sulfate heptahydrate, 0.00042% manganese sulfate hydrate, 0.00002% biotin and 0.00002% thiamine hydrochloride) so that the concentration of the bacterial cell was 10% (w/v). […] During the reaction, 2.5 N aqueous ammonia was added with the use of a pH controller (Type: DT-1023 made by Able) to avoid the pH of the reaction mixture falling below 7.0.
Another assay has as its system Pseudomonas putida F1. The following applies: aerobic culture, LB (+glucose) liquid medium, 30° C. On the procedure:
as §1
(§3) Pseudomonas putida F1 and S12 were applied to LB agar medium (1% polypeptone, 0.5% yeast extract, 0.5% NaCl and 1.5% agar) and were left stand in the dark at 30° C. for 15 hours.
(§4) An inoculation loop of each of Pseudomonas putida F1 and S12 was inoculated into a test tube containing 10 mL of LB (+glucose) liquid medium (1% polypeptone, 0.5% yeast extract, 0.5% NaCl and 0.4% glucose), and aerobic culture was performed with shaking at 30° C. for 13 hours.
as §2

For a further assay, the system named is Pseudomonas putida S12. The following applies: aerobic culture, LB (+glucose) liquid medium, 30° C. On the procedure: as §1, §3, §4, §2

For `Oc1ccccc1` [phenol], the “proliferation of Escherichia coli” value in the assay on Escherichia coli JM109 (0.16% phenol) is on record as “significantly affected”; in the assay on Escherichia coli JM109 (0.20% phenol), “completely inhibited”. The entries for the “proliferation of Corynebacterium glutamicum” value in assay [1] (0.16% phenol) and in assay [1] (0.20% phenol) were “hardly affected” and “favorable growth”, respectively. For the same molecule, the “influence on saccharide consumption” value in assay [2] (0.24% phenol) is recorded as “no influence of phenol was observed”. In addition, the saccharide consumption result in assay [2] (0.38% phenol) is on record as “saccharide consumption was observed”; in assay [2] (0.46% phenol), “slightly observed”. Moreover, the “proliferation of Pseudomonas putida F1” value is “significantly affected” in the assay on Pseudomonas putida F1 (0.10% phenol) and “completely inhibited” with Pseudomonas putida F1 (0.20% phenol). Moreover, the “proliferation of Pseudomonas putida S12” value in the assay with Pseudomonas putida S12 (0.10% phenol) is “significantly affected”; in the assay with Pseudomonas putida S12 (0.20% phenol), “completely inhibited”.
